# Source: patent US9526782B2, “Pharmaceutical compositions comprising inhibitors of zinc-ZIP8-MTF1 as active ingredients for preventing or treating a joint disease” (GWANGJU INSTITUTE OF SCIENCE AND TECHNOLOGY, priority 2014, dated 2016)
# What was measured:
# [1] = tested on: DMM-operated mice; test: DMM surgery-induced OA with Zn^2+ diets or intraperitoneal ZnCl2; type: in vivo, mouse; settings: intraperitoneal, 5 mg/kg body weight twice a week, 6 weeks after surgery
# Method: FIG. 6m represents that knee joint sections were prepared from sham- and DMM-operated mice that were fed low-Zn^2+ (<0.5 mg zinc/kg), adequate-Zn^2+ (30 mg zinc/kg), or high-Zn^2+ (300 mg zinc/kg) diets. Cartilage destruction was determined by safranin-O/hematoxylin staining and quantified (n=10).
# FIG. 6n represents that sham- and DMM-operated mice were intraperitoneally injected with PBS or ZnCl2 (5 mg/kg body weight) twice a week until they are sacrificed 6 weeks after surgery. Knee joint sections were stained with safranin-O/hematoxylin and cartilage destruction was determined (n=10). […]
# (§1) Human OA cartilage was frozen, sectioned at 10-μm thickness, and fixed in paraformaldehyde. Sulfate proteoglycan was detected with alcian blue staining. Human ZIP8 was detected by immunostaining. […] Sections were deparaffinized in xylene, hydrated with graded ethanol, and stained with safranin-O. Cartilage destruction was scored by two blinded observers using the OARSI grading system (Glasson et al., 2010). Synovitis was determined by safranin-O and hematoxylin staining, and synovial inflammation (grade 0-3) was scored as described previously (Yang et al., 2010). Osteophyte development was identified by safranin-O staining, and osteophyte maturity was quantified as described previously (Oh et al., 2012). […]
# [2] = tested on: matrix-degrading enzymes (MMP3, MMP9, MMP12, MMP13, and ADAMTS5); test: mRNA (qRT-PCR) and protein (Western blotting) levels of matrix-degrading enzymes in chondrocytes; type: cell-based, mouse
# Method: (§2) Adenoviruses expressing mouse Zip8 (Ad-Zip8) and Mtf1 (Ad-Mtf1) were purchased from Vector Biolabs. Mouse articular chondrocytes were cultured for 2 days, infected with empty virus (Ad-C), Ad-Zip8, or Ad-Mtf1 for 2 hours at the indicated multiplicity of infection (MOI), and cultured for 24 hours, followed by further analyses.
# (§3) Total RNA was extracted from primary cultured chondrocytes using the TRI reagent (Molecular Research Center Inc.). For the isolation of RNA from knee joints, cartilage tissues were scraped with a blade to remove cartilage, and RNA was isolated using the TRI reagent and Purelink RNA mini kit (Ambion). The RNA was reverse transcribed, and the resulting cDNA was amplified by PCR.
# (§4) Transcript levels were quantified by qRT-PCR. siRNAs targeting Zip8 and Mtf1 were obtained from Dharmacon and transfected using Lipofectamine 2000. Non-targeting (scrambled) siRNA was used as a negative control. Chondrocytes were transfected by incubating for 6 hours with siRNA and Lipofectamine 2000 (Invitrogen), and infected with adenoviruses as described above. Therapeutic antibodies for obstruction of ZIP8 function were purchased from Santa Cruz Biotechnology and MyBioSource Company, and treated in chondrocytes for 24 hours.
# Total cell lysates were prepared in lysis buffer (150 mM NaCl, 1% NP-40, 50 mM Tris, 5 mM NaF) and used to detect cellular proteins (ZIP8, MTF1, and ERK). Secreted proteins (MMP3, MMP13, and ADAMTS5) were detected after trichloroacetic acid (TCA) precipitation from 900 μl of serum-free conditioned medium. All lysis buffers contained a cocktail of protease inhibitors and phosphatase inhibitors (Roche).
# [3] = tested on: Mt1 and Mt2; test: mRNA and protein levels of MT1 and MT2 in chondrocytes; type: cell-based, mouse; settings: primary cultured chondrocytes
# Text: as §3
# [4] = biological target: T1, MTF1 (Mus musculus, UniProt Q07243); test: MTF1 activity reporter gene assay and immunostaining in chondrocytes; type: cell-based
# T1 construct: endogenous in cells; host or cells: primary mouse articular chondrocytes
# Method: The MTF1 reporter gene assay kit was obtained from SABiosciences. Chondrocytes were transfected for 6 hours with a metal response element (MRE) reporter construct and a constitutive Renilla luciferase construct using Lipofectamine 2000 (Invitrogen). Transfected cells were infected with Ad-Mtf1 or Ad-Zip8 for 2 hours or treated with metal ions. Cells were harvested 24 hours after treatment, and firefly luciferase and Renilla luciferase activities were measured using a Dual Luciferase Assay System (Promega). […] MTF1 was detected by immunofluorescence microscopy. Images were acquired using a fluorescence microscope, and at least 200 cells were examined in multiple fields per condition to quantify the percentage of nuclear MTF1-positive cells.
# [5] = biological target: T2, ZIP8 (Mus musculus, UniProt Q91W10); test: Zn^2+ imaging and quantitation with FluoZin-3 AM in primary cultured articular chondrocytes; type: cell-based; settings: for cellular Zn^2+ level, effect of the substance itself: chondrocytes
# T2 construct: host or cells: primary mouse articular chondrocytes infected with Ad-Zip8
# T2 sequence (Q91W10 20-462): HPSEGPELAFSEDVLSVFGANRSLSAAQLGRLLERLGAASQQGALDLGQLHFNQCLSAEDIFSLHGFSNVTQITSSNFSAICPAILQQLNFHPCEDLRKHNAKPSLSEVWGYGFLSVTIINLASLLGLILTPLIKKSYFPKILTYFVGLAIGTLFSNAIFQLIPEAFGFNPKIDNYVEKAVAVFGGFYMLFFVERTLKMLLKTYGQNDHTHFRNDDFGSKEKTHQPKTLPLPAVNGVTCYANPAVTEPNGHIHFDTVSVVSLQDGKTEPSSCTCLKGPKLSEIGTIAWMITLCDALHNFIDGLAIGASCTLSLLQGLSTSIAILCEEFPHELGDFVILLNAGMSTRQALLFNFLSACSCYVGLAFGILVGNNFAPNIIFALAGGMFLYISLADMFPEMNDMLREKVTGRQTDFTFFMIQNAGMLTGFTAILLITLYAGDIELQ
# Method: Chondrocytes were maintained as a monolayer in Dulbecco's Modified Eagle's Medium (DMEM) supplemented with 10% fetal bovine serum (FBS) and antibiotics, and cells at culture day 2 were treated as indicated in each experiment.
# as §2
# Intracellular Zn^2+ was detected using the Zn^2+-selective fluorophore, FluoZin-3 AM (Invitrogen). […] Cells were then washed with Ca^2+- and Mg^2+-free phosphate-buffered saline (PBS) and incubated for an additional 30 minutes at 37° C. Intracellular Zn^2+ images were acquired with a fluorescence microscope, and population-wide fluorescence intensity was measured using a Spectramax Gemini microplate fluorescence reader (Molecular Devices) with excitation at 488 nm, cut-off at 515 nm, and emission at 530 nm.
# as §4
# [6] = tested on: mouse knee joints; test: Experimental OA induced by IA injection of adenovirus into mouse knee joints, histology and immunostaining; type: in vivo; settings: 0.1 mg/kg body weight
# Text: Male mice (C57BL/6, Col2a1-Zip8 TG, Zip8^+/−, Zip8^fl/fl; Zip8^fl/fl; Col2a1-Cre, Mtf1^+/−, Mtf1^fl/fl, Mtf1^fl/fl; Col2a1-Cre, Mt1^−/−; Mt2^−/−) were used for experimental OA studies. Chondrocyte-specific Zip8 TG (Col2a1-Zip8) mice were generated using the Col2a1 promoter and enhancer. Zip8^+/− mice were obtained from The European Mouse Mutant Archive. The Mtf1 mouse strain used for this research project was created from an ES cell clone generated by the Wellcome Trust Sanger Institute and developed into mice by the KOMP Repository and the Mouse Biology Program at the University of California, Davis. Zip8^+/− and Mtf1^+/− mice were backcrossed with Actb-Flp1 TG mice (The Jackson Laboratory) to generate Zip8fl/fl and Mtf1fl/fl mice, respectively. These mice were then backcrossed with Col2a1-Cre TG mice (The Jackson Laboratory) to generate chondrocyte-specific CKO mice (Zip8^fl/fl; Col2a1-Cre and Mtf1^fl/fl; Col2a1-Cre). Mt1^−/−, Mt2^−/− double-KO mice were obtained from The Jackson Laboratory. […]
# as §1, with “2012). Subchondral bone sclerosis was determined by measuring the thickness of the subchondral bone plate (Zhen et al., 2013). Antibodies used for immunostaining of cartilage sections are as follows: ZIP8 and MTF1 in human cartilage tissue sections were detected by antibodies obtained from Proteintech (20459-1-AP) and Novus (NBP1-86380), respectively.” for “2012).”
# [7] = tested on: ZIP8; test: Expression levels of metal ion transporters in chondrocytes treated with IL1β; type: cell-based; settings: primary cultures of mouse articular chondrocytes
# Text: FIG. 1a represents mRNA levels of metal ion transporters determined by qRT-PCR in articular chondrocytes treated with IL1β (n=10). Insert is Western blotting of ZIP8 in chondrocytes treated with IL1β.
# as §3
# [8] = Ad-Zip8 chondrocytes, TPEN 1 μM pre-incubated with 1 μM metal ion
# T1 sequence (Q07243 whole entry): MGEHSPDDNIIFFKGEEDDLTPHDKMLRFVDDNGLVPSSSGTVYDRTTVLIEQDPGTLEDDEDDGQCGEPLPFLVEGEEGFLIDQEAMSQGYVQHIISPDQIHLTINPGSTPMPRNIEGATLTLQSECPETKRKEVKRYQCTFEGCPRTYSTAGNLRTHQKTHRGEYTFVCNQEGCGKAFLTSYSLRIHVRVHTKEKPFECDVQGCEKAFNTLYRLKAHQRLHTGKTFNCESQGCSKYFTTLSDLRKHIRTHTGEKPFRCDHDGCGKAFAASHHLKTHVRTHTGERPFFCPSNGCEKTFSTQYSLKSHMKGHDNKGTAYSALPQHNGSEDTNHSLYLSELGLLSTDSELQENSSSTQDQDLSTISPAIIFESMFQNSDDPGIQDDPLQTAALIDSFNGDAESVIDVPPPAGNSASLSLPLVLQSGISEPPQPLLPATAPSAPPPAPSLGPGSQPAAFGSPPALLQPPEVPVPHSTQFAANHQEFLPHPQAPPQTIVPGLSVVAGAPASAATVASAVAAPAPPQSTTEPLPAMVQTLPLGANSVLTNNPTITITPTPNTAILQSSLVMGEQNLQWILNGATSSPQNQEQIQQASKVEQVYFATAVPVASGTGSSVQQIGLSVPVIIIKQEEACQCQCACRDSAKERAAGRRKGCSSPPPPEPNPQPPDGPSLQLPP
molecule,measurement,setting,value
[Cl-].[Cl-].[Zn+2] [ZnCl2],DMM-induced cartilage destruction,[1],augmented
same,"inhibitory effects of TPEN on the ZIP8-mediated expression of matrix-degrading enzymes, effect of pre-incubation of TPEN with the metal salt",[2]; [8],effectively abolished
same,expression of matrix-degrading enzymes caused by the substance itself,"[2]; chondrocytes, metal salts 100 μM (CdCl2 1 μM)",up-regulated
same,expression of Mt1 and Mt2,[3],significantly increased
same,"inhibitory effects of TPEN on MTF1 transcriptional activity, effect of pre-incubation of TPEN with the metal salt",[4]; [8],abolished
same,nuclear localization of MTF1,[4]; chondrocytes,most effective
same,"MTF1 transcriptional activity, effect of the substance itself","[4]; chondrocytes, reporter gene assay",most effective
"c1ccc(CN(CCN(Cc2ccccn2)Cc2ccccn2)Cc2ccccn2)nc1 [TPEN, N,N,N′,N′-tetrakis (2-pyridylmethyl)ethylenediamine]",ZIP8-mediated increase in Zn^2+ influx,"[5]; chondrocytes infected with Ad-Zip8, with the test agent",abolished
same,"IL1β-caused influx of Zn^2+ in chondrocytes, effect of the test agent",[5]; chondrocytes treated with IL1β,blocked
same,"Ad-Zip8-induced MMP expression, effect of co-injection",[6],significantly blocked
same,"Ad-Zip8-induced cartilage destruction, effect of co-injection",[6],significantly blocked
same,"Ad-Zip8-induced synovitis, effect of co-injection",[6],significantly blocked
same,"Ad-Mtf1-induced upregulation of matrix-degrading enzymes, effect of the test agent",[2]; chondrocytes infected with Ad-Mtf1,abolished
same,"Ad-Zip8 (ZIP8)-induced upregulation of matrix-degrading enzymes, effect of the test agent",[2]; chondrocytes infected with Ad-Zip8,blocked
same,"upregulation of MMP3, MMP13, and ADAMTS5 by IL1β, effect of the test agent",[2]; chondrocytes treated with IL1β,abolished
same,"MTF1 transcriptional activity in Ad-Zip8-infected chondrocytes, effect of the test agent","[4]; 800 MOI of Ad-Zip8, TPEN 1 μM",inhibitory effects
IL1β: proinflammatory cytokine that promotes catabolism in arthritic cartilage,"cellular Zn^2+ level, effect of the substance itself",[5],caused an influx of Zn^2+
same,"cellular Zn^2+ level, effect of the substance itself",[5]; listed as IL-1,increases
same,ZIP8 expression levels,[7],markedly increased
